Test results from patent US20210113501A1, “METHOD OF ADMINISTERING BETA-HYDROXY-BETA-METHYLBUTYRATE (HMB)” (Metabolic Technologies, Inc., priority 2009, published 2021).
Marks after values point to notes of the source that are not given here.

Experiment: Study 1 hematology (complete blood count)
Type: in vivo, human
Conditions: for Basophils (absolute) % Change / Basophils, % - % Change / Eosinophils (absolute) % Change / Eosinophils, % - % Change / Hematocrit % Change / Hemoglobin % Change / Lymphocytes (absolute) % Change / Lymphocytes, % - % Change / MCH % Change / MCHC % Change / MCV % Change / Monocytes (absolute) % Change / Monocytes, % - % Change / Neutrophils (absolute) % Change / Neutrophils, % - % Change / Platelets % Change / RBC % Change / RDW % Change / WBC % Change: Before to After
Method: Study 1 design. For study 1 the subjects reported to the laboratory in the morning following an overnight fast. Before ingestion of one of the supplemental treatments, a flexible sterile polyethylene catheter was inserted into a forearm vein using sterile procedures and a pre-ingestion blood sample was drawn. Subsequent blood samples were taken at 0, 2, 5, 10, 15, 25, 35, 45, 60, 90, 120 and 180 min after ingestion of the treatment. Plasma was separated and samples were stored frozen at −70° C. for analysis of HMB concentration. In addition, a portion of the pre-ingestion and 180 minute blood samples were used for measurements (LabCorp, Kansas City, Mo.) of glucose, uric acid, blood urea nitrogen (BUN), creatinine, sodium, potassium, chloride, carbon dioxide, phosphorous, protein, albumin, globulin, albumin:globulin ratio, total bilirubin, direct bilirubin, alkaline phosphatase, lactate dehydrogenase, aspartate aminotransferase (AST), alanine aminotransferase (ALT), gamma-glutamyl transpeptidase (GGT), iron binding capacity (TIBC), unsaturated iron binding capacity (UIBC), iron, iron saturation, total cholesterol, triglycerides, high density lipoprotein (HDL), low density lipoprotein (LDL), and cholesterol ratio. A complete blood count (CBC) was also performed before and after the 180 min treatment period. Subjects also completed a brief questionnaire to report any physical symptoms (such as nausea, headache, etc) they may have experienced during the experiment.
The data were analyzed using a crossover design with Proc GLM in SAS. (45) For the timed sampling of plasma HMB a repeated measures polynomial model was used. The model included subject, order, and treatment main effects and time by treatment interaction where appropriate. For other parameters Proc GLM was also used with subject, order, and treatment main effects and the p values are reported for the treatment main effect. Statistical significance was determined for p<0.05 and a trend was determined for 0.05<p<0.10.

Structure (SMILES): CC(C)(O)CC(=O)O [HMB-Acid Gel Sublingual, 3-hydroxy-3-methylbutyric acid]
- Basophils (absolute) (After (180 min)): 0.03 ± 0.02 ×10^3/μL
- Basophils, % (After (180 min)): 0.3 ± 0.2%
- Eosinophils (absolute) (After (180 min)): 0.1 ± 0.02 ×10^3/μL
- Eosinophils, % (After (180 min)): 1.8 ± 0.3%
- Hematocrit (After (180 min)): 38.5 ± 1.7%
- Hemoglobin (After (180 min)): 13.3 ± 0.6 g/dL
- Lymphocytes (absolute) (After (180 min)): 2.2 ± 0.2 ×10^3/μL
- Lymphocytes, % (After (180 min)): 35.5 ± 2.1%
- MCH (After (180 min)): 31.0 ± 0.5 pg
- MCHC (After (180 min)): 34.5 ± 0.2 g/dL
- MCV (After (180 min)): 89.9 ± 1.7 fL
- Monocytes (absolute) (After (180 min)): 0.5 ± 0.05 ×10^3/μL
- Monocytes, % (After (180 min)): 7.1 ± 0.7%
- Neutrophils (absolute) (After (180 min)): 3.5 ± 0.3 ×10^3/μL
- Neutrophils, % (After (180 min)): 55.4 ± 2.9%
- Platelets (After (180 min)): 213.9 ± 19.1 ×10^3/μL
- RBC (After (180 min)): 4.3 ± 0.2 ×10^6/µL
- RDW (After (180 min)): 13.3 ± 0.2%
- WBC (After (180 min)): 6.3 ± 0.4 ×10^3/μL
- Basophils (absolute) (Before): 0.03 ± 0.02 ×10^3/μL
- Basophils, % (Before): 0.3 ± 0.2%
- Eosinophils (absolute) (Before): 0.2 ± 0.03 ×10^3/μL
- Eosinophils, % (Before): 2.4 ± 0.4%
- Hematocrit (Before): 37.8 ± 1.6%
- Hemoglobin (Before): 13.1 ± 0.6 g/dL
- Lymphocytes (absolute) (Before): 2.8 ± 0.2 ×10^3/μL
- Lymphocytes, % (Before): 43.0 ± 1.4%
- MCH (Before): 31.0 ± 0.5 pg
- MCHC (Before): 34.7 ± 0.2 g/dL
- MCV (Before): 89.6 ± 1.6 fL
- Monocytes (absolute) (Before): 0.5 ± 0.1 ×10^3/μL
- Monocytes, % (Before): 7.0 ± 1.0%
- Neutrophils (absolute) (Before): 3.1 ± 0.3 ×10^3/μL
- Neutrophils, % (Before): 47.4 ± 2.2%
- Platelets (Before): 221.3 ± 20.8 ×10^3/μL
- RBC (Before): 4.2 ± 0.2 ×10^6/µL
- RDW (Before): 13.2 ± 0.2%
- WBC (Before): 6.6 ± 0.4 ×10^3/μL
- Basophils (absolute) % Change: 0.0%
- Basophils, % - % Change: 0.0%
- Eosinophils (absolute) % Change: −28.6%
- Eosinophils, % - % Change: −26.3%
- Hematocrit % Change: 2.0%
- Hemoglobin % Change: 1.4%
- Lymphocytes (absolute) % Change: −22.1%
- Lymphocytes, % - % Change: −17.4%
- MCH % Change: 0.0%
- MCHC % Change: −0.5%
- MCV % Change: 0.3%
- Monocytes (absolute) % Change: 0.0%
- Monocytes, % - % Change: 1.8%
- Neutrophils (absolute) % Change: 11.6%
- Neutrophils, % - % Change: 16.9%
- Platelets % Change: −3.3%
- RBC % Change: 1.7%
- RDW % Change: 0.9%
- WBC % Change: −4.2%

Structure (SMILES): CC(C)(O)CC(=O)O [HMB-Acid Gel Swallow, 3-hydroxy-3-methylbutyric acid]
- Basophils (absolute) (After (180 min)): 0.04 ± 0.02 ×10^3/μL
- Basophils, % (After (180 min)): 0.4 ± 0.2%
- Eosinophils (absolute) (After (180 min)): 0.1 ± 0.02 ×10^3/μL
- Eosinophils, % (After (180 min)): 2.4 ± 0.4%
- Hematocrit (After (180 min)): 37.6 ± 1.5%
- Hemoglobin (After (180 min)): 13.0 ± 0.5 g/dL
- Lymphocytes (absolute) (After (180 min)): 2.2 ± 0.1 ×10^3/μL
- Lymphocytes, % (After (180 min)): 37.4 ± 1.9%
- MCH (After (180 min)): 31.4 ± 0.8 pg
- MCHC (After (180 min)): 34.6 ± 0.3 g/dL
- MCV (After (180 min)): 90.0 ± 1.5 fL
- Monocytes (absolute) (After (180 min)): 0.5 ± 0.04 ×10^3/μL
- Monocytes, % (After (180 min)): 7.0 ± 0.6%
- Neutrophils (absolute) (After (180 min)): 3.3 ± 0.2 ×10^3/μL
- Neutrophils, % (After (180 min)): 52.9 ± 2.2%
- Platelets (After (180 min)): 202.4 ± 25. ×10^3/μL
- RBC (After (180 min)): 4.2 ± 0.2 ×10^6/µL
- RDW (After (180 min)): 13.2 ± 0.3%
- WBC (After (180 min)): 6.1 ± 0.3 ×10^3/μL
- Basophils (absolute) (Before): 0.01 ± 0.01^a ×10^3/μL
- Basophils, % (Before): 0.1 ± 0.1^a %
- Eosinophils (absolute) (Before): 0.2 ± 0.04 ×10^3/μL
- Eosinophils, % (Before): 2.5 ± 0.3%
- Hematocrit (Before): 37.6 ± 1.6%
- Hemoglobin (Before): 13.1 ± 0.5 g/dL
- Lymphocytes (absolute) (Before): 3.1 ± 0.3 ×10^3/μL
- Lymphocytes, % (Before): 43.8 ± 2.8%
- MCH (Before): 31.2 ± 0.7 pg
- MCHC (Before): 34.7 ± 0.3 g/dL
- MCV (Before): 90.1 ± 1.3 fL
- Monocytes (absolute) (Before): 0.5 ± 0.1 ×10^3/μL
- Monocytes, % (Before): 7.6 ± 0.7%
- Neutrophils (absolute) (Before): 3.0 ± 0.2 ×10^3/μL
- Neutrophils, % (Before): 46.0 ± 2.8%
- Platelets (Before): 195.0 ± 31.5 ×10^3/μL
- RBC (Before): 4.2 ± 0.2 ×10^6/µL
- RDW (Before): 13.2 ± 0.2%
- WBC (Before): 6.7 ± 0.5 ×10^3/μL
- Basophils (absolute) % Change: 200.0%
- Basophils, % - % Change: 200.0%
- Eosinophils (absolute) % Change: −41.2%
- Eosinophils, % - % Change: −5.0%
- Hematocrit % Change: −0.1%
- Hemoglobin % Change: −0.4%
- Lymphocytes (absolute) % Change: −29.1%
- Lymphocytes, % - % Change: −14.6%
- MCH % Change: 0.7%
- MCHC % Change: −0.3%
- MCV % Change: −0.1%
- Monocytes (absolute) % Change: −7.7%
- Monocytes, % - % Change: −8.2%
- Neutrophils (absolute) % Change: 10.9%
- Neutrophils, % - % Change: 14.9%
- Platelets % Change: 3.8%
- RBC % Change: 0.1%
- RDW % Change: 0.4%
- WBC % Change: −10.2%
- decrease in absolute lymphocyte numbers over the measurement period (p<0.04): significantly greater decrease
